Data published in ChEMBL document CHEMBL5537158, “Polymyxins with Potent Antibacterial Activity against Colistin-Resistant Pathogens: Fine-Tuning Hydrophobicity with Unnatural Amino Acids” (J Med Chem, 2024).
Converted amounts (≈) assume the structure as drawn.

What was measured:
Escherichia coli [1] = test: Antibacterial activity against Escherichia coli ATCC 25922 assessed as bacterial growth inhibition incubated for 20 hrs by broth microdilution method; type: functional
Escherichia coli [2] = test: Antimicrobial activity against […] Escherichia coli harboring mcr-1 assessed as bacterial growth inhibition incubated for 20 hrs by broth microdilution method; type: functional
Klebsiella pneumoniae [3] = test: Antimicrobial activity against Klebsiella pneumoniae ATCC 13883 assessed as bacterial growth inhibition incubated for 20 hrs by broth microdilution method; type: functional
Pseudomonas aeruginosa [4] = test: Antimicrobial activity against Pseudomonas aeruginosa PAO1 assessed as bacterial growth inhibition incubated for 20 hrs by broth microdilution method; type: functional
Acinetobacter baumannii [5] = test: Antimicrobial activity against Acinetobacter baumannii ATCC 19606 assessed as bacterial growth inhibition incubated for 20 hrs by broth microdilution method; type: functional
Acinetobacter baumannii [6] = test: Antimicrobial activity against colistin resistant Acinetobacter baumannii ATCC 3658/17 assessed as bacterial growth inhibition incubated for 20 hrs by broth microdilution method; type: functional
Escherichia coli [7] = test: Antibacterial activity against […] Escherichia coli clinical isolate 2 assessed as bacterial growth inhibition incubated for 20 hrs by broth microdilution method; type: functional
Escherichia coli [8] = test: Antibacterial activity against […] Escherichia coli clinical isolate 3 assessed as bacterial growth inhibition incubated for 20 hrs by broth microdilution method; type: functional
Pseudomonas aeruginosa [9] = test: Antimicrobial activity against Pseudomonas aeruginosa ATCC 27853 assessed as bacterial growth inhibition incubated for 20 hrs by broth microdilution method; type: functional
Pseudomonas aeruginosa [10] = test: Antimicrobial activity against colistin resistant Pseudomonas aeruginosa clinical isolate 1 assessed as bacterial growth inhibition incubated for 20 hrs by broth microdilution method; type: functional
Klebsiella pneumoniae [11] = test: Antimicrobial activity against colistin resistant Klebsiella pneumoniae ATCC 13883 assessed as bacterial growth inhibition incubated for 20 hrs by broth microdilution method; type: functional
Klebsiella pneumoniae [12] = test: Antimicrobial activity against colistin resistant Klebsiella pneumoniae clinical isolate 1 assessed as bacterial growth inhibition incubated for 20 hrs by broth microdilution method; type: functional
Klebsiella pneumoniae [13] = test: Antimicrobial activity against colistin resistant Klebsiella pneumoniae clinical isolate 2 assessed as bacterial growth inhibition incubated for 20 hrs by broth microdilution method; type: functional
Klebsiella pneumoniae [14] = test: Antimicrobial activity against colistin resistant Klebsiella pneumoniae clinical isolate 3 assessed as bacterial growth inhibition incubated for 20 hrs by broth microdilution method; type: functional
Klebsiella pneumoniae [15] = test: Antimicrobial activity against colistin resistant Klebsiella pneumoniae clinical isolate 5 assessed as bacterial growth inhibition incubated for 20 hrs by broth microdilution method; type: functional
Acinetobacter baumannii [16] = test: Antimicrobial activity against colistin resistant Acinetobacter baumannii ATCC 19606 assessed as bacterial growth inhibition incubated for 20 hrs by broth microdilution method; type: functional
Acinetobacter baumannii [17] = test: Antimicrobial activity against colistin resistant Acinetobacter baumannii clinical isolate 2 assessed as bacterial growth inhibition incubated for 20 hrs by broth microdilution method; type: functional
Escherichia coli [18] = test: Potency index, ratio of colistin MIC to test compound MIC for antibacterial activity against Escherichia coli harboring mcr-1; type: functional
Pseudomonas aeruginosa [19] = test: Potency index, ratio of colistin MIC to test compound MIC for antibacterial activity against colistin resistant Pseudomonas aeruginosa clinical isolate 1; type: functional
Pseudomonas aeruginosa [20] = test: Potency index, ratio of polymyxin B MIC to test compound MIC for antibacterial activity against colistin resistant Pseudomonas aeruginosa clinical isolate 1; type: functional
Erythrocyte = test: Hemolytic activity in human RBC at 400 ug/ml after 1 hr; type: toxicity, cell-based; conditions: erythrocyte, 1 h, at 400 µg/mL
HepG2 = test: Cytotoxicity against human HepG2 cells incubated for 48 hrs by MTT assay; type: toxicity, cell-based
Acinetobacter baumannii [21] = test: Antimicrobial activity against colistin resistant Acinetobacter baumannii clinical isolate 1 assessed as bacterial growth inhibition incubated for 20 hrs by broth microdilution method; type: functional
Acinetobacter baumannii [22] = test: Antimicrobial activity against colistin resistant Acinetobacter baumannii clinical isolate 3 assessed as bacterial growth inhibition incubated for 20 hrs by broth microdilution method; type: functional
Acinetobacter baumannii [23] = test: Antimicrobial activity against colistin resistant Acinetobacter baumannii clinical isolate 4 assessed as bacterial growth inhibition incubated for 20 hrs by broth microdilution method; type: functional
Escherichia coli [24] = test: Potency index, ratio of colistin MIC to test compound MIC for antibacterial activity against […] Escherichia coli; type: functional

Molecule | MIC (Escherichia coli [2]) [µg/mL] | MIC (Klebsiella pneumoniae [3]) [µg/mL] | MIC (Pseudomonas aeruginosa [4]) [µg/mL] | MIC (Acinetobacter baumannii [5]) [µg/mL] | MIC (Acinetobacter baumannii [6]) [µg/mL] | MIC (Escherichia coli [7]) [µg/mL] | MIC (Escherichia coli [8]) [µg/mL] | MIC (Pseudomonas aeruginosa [9]) [µg/mL] | MIC (Pseudomonas aeruginosa [10]) [µg/mL] | MIC (Klebsiella pneumoniae [12]) [µg/mL] | MIC (Klebsiella pneumoniae [13]) [µg/mL] | MIC (Klebsiella pneumoniae [14]) [µg/mL] | MIC (Acinetobacter baumannii [17]) [µg/mL] | Ratio (Escherichia coli [18]) | Ratio (Pseudomonas aeruginosa [19]) | further results
CCCCCCCC(=O)N[C@@H](CCN)C(=O)N[C@H](C(=O)N[C@@H](CCN)C(=O)N[C@H]1CCNC(=O)[C@H]([C@@H](C)O)NC(=O)[C@H](CCN)NC(=O)[C@H](CCN)NC(=O)[C@H](CCCCCC)NC(=O)[C@@H](Cc2ccccc2)NC(=O)[C@H](CCN)NC1=O)[C@@H](C)O | 0.5 (≈ 0.411 µM) | < 0.123 | < 0.125 | 0.125 (≈ 0.103 µM) | 0.25 (≈ 0.205 µM) | 1 (≈ 0.821 µM) | 1 (≈ 0.821 µM) | 0.25 (≈ 0.205 µM) | 2 (≈ 1.64 µM) | 16 (≈ 13.1 µM) | 8 (≈ 6.57 µM) | 4 (≈ 3.29 µM) | 16 (≈ 13.1 µM) | 4 | 2 | MIC (Escherichia coli [1]): < 0.125 µg/mL; MIC (Klebsiella pneumoniae [11]): 8 µg/mL (≈ 6.57 µM); MIC (Klebsiella pneumoniae [15]): 16 µg/mL (≈ 13.1 µM); MIC (Acinetobacter baumannii [16]): 0.25 µg/mL (≈ 0.205 µM); Ratio (Pseudomonas aeruginosa [20]): 2
POLYMYXIN B | – | – | – | – | – | – | – | – | – | – | – | – | – | – | – | Activity (Erythrocyte): < 10%; IC50 (HepG2): > 1280 µg/mL
CCCCCCCC(=O)N[C@@H](CCN)C(=O)N[C@H](C(=O)N[C@@H](CCN)C(=O)N[C@H]1CCNC(=O)[C@H]([C@@H](C)O)NC(=O)[C@H](CCN)NC(=O)[C@H](CCN)NC(=O)[C@H](CCCc2ccccc2)NC(=O)[C@@H](Cc2ccccc2)NC(=O)[C@H](CCN)NC1=O)[C@@H](C)O | 0.5 (≈ 0.4 µM) | < 0.125 | < 0.125 | 0.125 (≈ 0.0999 µM) | < 0.125 | 1 (≈ 0.799 µM) | 1 (≈ 0.799 µM) | 0.125 (≈ 0.0999 µM) | 2 (≈ 1.6 µM) | 8 (≈ 6.39 µM) | 4 (≈ 3.2 µM) | 2 (≈ 1.6 µM) | 0.5 (≈ 0.4 µM) | 4 | 2 | MIC (Acinetobacter baumannii [21]): 2 µg/mL (≈ 1.6 µM); MIC (Acinetobacter baumannii [22]): 1 µg/mL (≈ 0.799 µM); MIC (Acinetobacter baumannii [23]): 2 µg/mL (≈ 1.6 µM); Ratio (Escherichia coli [24]): 4
